Data taken from patent US12459921B2, “Isoindoline compound, preparation method, pharmaceutical composition and use thereof” (SHANGHAI INSTITUTE OF MATERIA MEDICA, CHINESE ACADEMY OF …, priority 2018, dated 2025).

What follows are compounds tested on MM.1S cells (assay: Inhibitory effect on the proliferation of MM.1S, MTS cell viability test). Settings: Homo sapiens, MM1.S, 168 h, multiple myeloma MM.1S cells, 7 days incubation, read-out: Tumor cell inhibitory activity.
Format: cell-based
In short: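 Viability measured by MTS (OD490 minus OD690 background, 3-4 h) after a 7-day exposure of 20,000 MM.1S cells/well to 5-fold serially diluted compound, 0.2% DMSO final. Inhibition calculated relative to DMSO wells; IC50 curve-fitted, averaged over three repeats.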

`O=C1CCC(N2Cc3c(OCCCCN4CCC(c5noc6cc(F)ccc56)CC4)cccc3C2=O)C(=O)N1` (stereo not shown) [Example 241, 3-(4-(4-(4-(6-fluorobenzisoxazole-3-yl)piperidin-1-yl)butoxy)-1-oxoisoindoline-2-yl) piperidine-2,6-dione] and `O=C1CCC(N2Cc3c(OCCCCN4CCN(c5noc6ccccc56)CC4)cccc3C2=O)C(=O)N1` (stereo not shown) [Example 242, 3-(4-(4-(4-(benzisoxazole-3-yl)piperazine-1-yl)butoxy)-1-oxoisoindoline-2-yl)piperidine-2,6-dione] fall in the same range of IC50: 1000 to 20000 nM for the first, 1000 to 20000 nM for the second.

`O=C1CCC(N2Cc3c(OCCCCN4CCN(c5ccc(Cl)c(Cl)c5)CC4)cccc3C2=O)C(=O)N1` (stereo not shown) [Example 243, 3-(4-(4-(4-(3,4-dichlorophenyl)piperazine-1-yl)butoxy)-1-oxoisoindoline-2-yl)piperidine-2,6-dione] and `N#CC1(c2ccc(Cl)c(Cl)c2)CCN(CCCCc2cccc3c2CN(C2CCC(=O)NC2=O)C3=O)CC1` (stereo not shown) [Example 272, 4-(3,4-dichlorophenyl)-1-(4-(2-(2,6-dioxopiperidin-3-yl)-1-oxoisoindoline-4-yl)butyl)piperidine-4-carbonitrile] fall in the same range of IC50: 100 to 1000 nM for the first, 100 to 1000 nM for the second.

`N#CC1(c2cc(Cl)cc(Cl)c2)CCN(CCCCc2cccc3c2CN(C2CCC(=O)NC2=O)C3=O)CC1` (stereo not shown) [Example 244, 4-(3,5-dichlorophenyl)-1-(4-(2-(2,6-dioxopiperidine-3-yl)-1-oxoisoindoline-4-yl)butyl)piperidine-4-carbonitrile] and `N#CC1(c2cc(Cl)cc(Cl)c2)CCN(CCCCCc2cccc3c2CN(C2CCC(=O)NC2=O)C3=O)CC1` (stereo not shown) [Example 251, 4-(3,5-dichlorophenyl)-1-(5-(2-(2,6-dioxopiperidin-3-yl)-1-oxoisoindoline-4-yl)pentyl)piperidine-4-carbonitrile] fall in the same range of IC50: 100 to 1000 nM for the first, 100 to 1000 nM for the second.

`COc1ccc(C2(C#N)CCN(CCCCc3cccc4c3CN(C3CCC(=O)NC3=O)C4=O)CC2)c(Cl)c1` (stereo not shown) [Example 245, 4-(2-chloro-4-methoxyphenyl)-1-(4-(2-(2,6-dioxopiperidine-3-yl)-1-oxoisoindoline-4-yl)butyl)piperidine-4-carbonitrile] and `COc1ccc(C2(C#N)CCN(CCCCCc3cccc4c3CN(C3CCC(=O)NC3=O)C4=O)CC2)c(Cl)c1` (stereo not shown) [Example 267, 4-(2-chloro-4-methoxyphenyl)-1-(5-(2-(2,6-dioxopiperidin-3-yl)-1-oxoisoindoline-4-yl)pentyl)piperidine-4-carbonitrile] fall in the same range of IC50: 100 to 1000 nM for the first, 100 to 1000 nM for the second.

`COc1ccc(OC)c(C2(C#N)CCN(CCCCc3cccc4c3CN(C3CCC(=O)NC3=O)C4=O)CC2)c1` (stereo not shown) [Example 246, 4-(2,5-dimethoxyphenyl)-1-(4-(2-(2,6-dioxopiperidine-3-yl)-1-oxoisoindoline-4-yl)butyl)piperidine-4-carbonitrile] and `COc1ccc(OC)c(C2(C#N)CCN(CCCCCc3cccc4c3CN(C3CCC(=O)NC3=O)C4=O)CC2)c1` (stereo not shown) [Example 247, 4-(2,5-dimethoxyphenyl)-1-(5-(2-(2,6-dioxopiperidine-3-yl)-1-oxoisoindoline-4-yl)pentyl)piperidine-4-carbonitrile] fall in the same range of IC50: 100 to 1000 nM for the first, 100 to 1000 nM for the second.

Compared with `COc1ccc(C2(C#N)CCN(CCCCCc3cccc4c3CN(C3CCC(=O)NC3=O)C4=O)CC2)cc1OC` (stereo not shown) [Example 249, 4-(3,4-dimethoxyphenyl)-1-(5-(2-(2,6-dioxopiperidine-3-yl)-1-oxoisoindoline-4-yl)pentyl)piperidine-4-carbonitrile], `COc1ccc(C2(C#N)CCN(CCCCCc3cccc4c3CN(C3CCC(=O)NC3=O)C4=O)CC2)c(OC)c1` (stereo not shown) [Example 255, 4-(2,4-dimethoxyphenyl)-1-(5-(2-(2,6-dioxopiperidin-3-yl)-1-oxoisoindoline-4-yl)pentyl)piperidine-4-carbonitrile] is higher in IC50: 100 to 1000 nM for the first, 1000 to 20000 nM for the second. The first is the more potent here.

`N#CC1(c2c(Cl)cccc2Cl)CCN(CCCCCc2cccc3c2CN(C2CCC(=O)NC2=O)C3=O)CC1` (stereo not shown) [Example 250, 4-(2,6-dichlorophenyl)-1-(5-(2-(2,6-dioxopiperidin-3-yl)-1-oxoisoindoline-4-yl)pentyl)piperidine-4-carbonitrile] and `N#CC1(c2c(Cl)cccc2Cl)CCN(CCCCc2cccc3c2CN(C2CCC(=O)NC2=O)C3=O)CC1` (stereo not shown) [Example 266, 4-(2,6-dichlorophenyl)-1-(4-(2-(2,6-dioxopiperidin-3-yl)-1-oxoisoindoline-4-yl)butyl)piperidine-4-carbonitrile] fall in the same range of IC50: 100 to 1000 nM for the first, 100 to 1000 nM for the second.

`N#CC1(c2ccc(O[C@H]3CCOC3)cc2)CCN(CCCCCc2cccc3c2CN(C2CCC(=O)NC2=O)C3=O)CC1` (stereo partly drawn) [Example 252, 1-(5-(2-(2,6-dioxopiperidin-3-yl)-1-oxoisoindolin-4-yl)pentyl)-4-(4-(((S)-tetrahydrofuran-3-yl)oxy)phenyl)piperidine-4-carbonitrile] and `N#CC1(c2ccc(OC3COC3)cc2)CCN(CCCCCc2cccc3c2CN(C2CCC(=O)NC2=O)C3=O)CC1` (stereo not shown) [Example 270, 1-(5-(2-(2,6-dioxopiperidin-3-yl)-1-oxoisoindolin-4-yl)pentyl)-4-(4-(oxetan-3-yloxy)phenyl)piperidine-4-carbonitrile] fall in the same range of IC50: 100 to 1000 nM for the first, 100 to 1000 nM for the second.

`COc1ccc(C2(C#N)CCN(CCCCc3cccc4c3CN(C3CCC(=O)NC3=O)C4=O)CC2)c(OC)c1OC` (stereo not shown) [Example 253, 1-(4-(2-(2,6-dioxopiperidin-3-yl)-1-oxoisoindolin-4-yl)butyl)-4-(2,3,4-trimethoxyphenyl)piperidine-4-carbonitrile] and `COc1ccc(C2(C#N)CCN(CCCCCc3cccc4c3CN(C3CCC(=O)NC3=O)C4=O)CC2)c(OC)c1OC` (stereo not shown) [Example 254, 1-(5-(2-(2,6-dioxopiperidin-3-yl)-1-oxoisoindolin-4-yl)pentyl)-4-(2,3,4-trimethoxyphenyl)piperidine-4-carbonitrile] fall in the same range of IC50: 1000 to 20000 nM for the first, 1000 to 20000 nM for the second.

Compared with `COc1ccc(C2(C#N)CCN(CCCCc3cccc4c3CN(C3CCC(=O)NC3=O)C4=O)CC2)c(OC)c1` (stereo not shown) [Example 256, 4-(2,4-dimethoxyphenyl)-1-(4-(2-(2,6-dioxopiperidin-3-yl)-1-oxoisoindoline-4-yl)butyl)piperidine-4-carbonitrile], `COc1cccc(C2(C#N)CCN(CCCCc3cccc4c3CN(C3CCC(=O)NC3=O)C4=O)CC2)c1OC` (stereo not shown) [Example 259, 4-(2,3-dimethoxyphenyl)-1-(4-(2-(2,6-dioxopiperidin-3-yl)-1-oxoisoindoline-4-yl)butyl)piperidine-4-carbonitrile] is lower in IC50: 1000 to 20000 nM for the first, 100 to 1000 nM for the second.

`N#CC1(c2ccc(OC(F)(F)F)cc2Cl)CCN(CCCCc2cccc3c2CN(C2CCC(=O)NC2=O)C3=O)CC1` (stereo not shown) [Example 257, 4-(2-chloro-4-(trifluoromethoxy)phenyl)-1-(4-(2-(2,6-dioxopiperidin-3-yl)-1-oxoisoindolin-4-yl)butyl)piperidine-4-carbonitrile] and `N#CC1(c2ccc(OC(F)(F)F)cc2Cl)CCN(CCCCCc2cccc3c2CN(C2CCC(=O)NC2=O)C3=O)CC1` (stereo not shown) [Example 258, 4-(2-chloro-4-(trifluoromethoxy)phenyl)-1-(5-(2-(2,6-dioxopiperidin-3-yl)-1-oxoisoindolin-4-yl)pentyl)piperidine-4-carbonitrile] fall in the same range of IC50: 100 to 1000 nM for the first, 100 to 1000 nM for the second.

First: COc1cccc(C2(C#N)CCN(CCCCCc3cccc4c3CN(C3CCC(=O)NC3=O)C4=O)CC2)c1OC (stereo not shown) [Example 260, 4-(2,3-dimethoxyphenyl)-1-(5-(2-(2,6-dioxopiperidin-3-yl)-1-oxoisoindoline-4-yl)pentyl)piperidine-4-carbonitrile]
Second: COc1ccc(C2(C#N)CCN(CCCCCc3cccc4c3CN(C3CCC(=O)NC3=O)C4=O)CC2)cc1 (stereo not shown) [Example 265, 1-(5-(2-(2,6-dioxopiperidin-3-yl)-1-oxoisoindolin-4-yl)pentyl)-4-(4-methoxyphenyl)piperidine-4-carbonitrile]
The IC50 of the first is lower: 100 to 1000 nM for the first, 1000 to 20000 nM for the second.

`Cc1cc(C)c(C2(C#N)CCN(CCCCc3cccc4c3CN(C3CCC(=O)NC3=O)C4=O)CC2)c(C)c1` (stereo not shown) [Example 261, 1-(4-(2-(2,6-dioxopiperidin-3-yl)-1-oxoisoindolin-4-yl)butyl)-4-sym-trimethylphenylpiperidine-4-carbonitrile] and `Cc1cc(C)c(C2(C#N)CCN(CCCCCc3cccc4c3CN(C3CCC(=O)NC3=O)C4=O)CC2)c(C)c1` (stereo not shown) [Example 262, 1-(5-(2-(2,6-dioxopiperidin-3-yl)-1-oxoisoindolin-4-yl)pentyl)-4-sym-trimethylphenylpiperidine-4-carbonitrile] fall in the same range of IC50: 1000 to 20000 nM for the first, 1000 to 20000 nM for the second.

`COCCOc1ccc(C2(C#N)CCN(CCCCCc3cccc4c3CN(C3CCC(=O)NC3=O)C4=O)CC2)cc1` (stereo not shown) [Example 264, 1-(5-(2-(2,6-dioxopiperidin-3-yl)-1-oxoisoindolin-4-yl)pentyl)-4-(4-(2-methoxyethoxy)phenyl)piperidine-4-carbonitrile] and `N#Cc1ccc(C2(C#N)CCN(CCCCCc3cccc4c3CN(C3CCC(=O)NC3=O)C4=O)CC2)cc1` (stereo not shown) [Example 268, 4-(4-cyanophenyl)-1-(5-(2-(2,6-dioxopiperidin-3-yl)-1-oxoisoindoline-4-yl)pentyl)piperidine-4-carbonitrile] fall in the same range of IC50: 100 to 1000 nM for the first, 100 to 1000 nM for the second.

Compared with `N#CC1(c2cc(Cl)ccc2Cl)CCN(CCCCc2cccc3c2CN(C2CCC(=O)NC2=O)C3=O)CC1` (stereo not shown) [Example 269, 4-(2,5-dichlorophenyl)-1-(4-(2-(2,6-dioxopiperidin-3-yl)-1-oxoisoindoline-4-yl)butyl)piperidine-4-carbonitrile], `N#CC1(c2ccc(C(F)(F)F)cc2)CCN(CCCCCc2cccc3c2CN(C2CCC(=O)NC2=O)C3=O)CC1` (stereo not shown) [Example 271, 1-(5-(2-(2,6-dioxopiperidin-3-yl)-1-oxoisoindolin-4-yl)pentyl)-4-(4-(trifluoromethyl)phenyl)piperidine-4-carbonitrile] is higher in IC50: 100 to 1000 nM for the first, 1000 to 20000 nM for the second.

Same assay, conditions: multiple myeloma MM.1S cells, 7 days incubation, read-out: Tumor cell inhibitory activity

`N#CC1(c2ccc(O[C@H]3CCOC3)cc2)CCN(CCCCCc2cccc3c2CN(C2CCC(=O)NC2=O)C3=O)CC1` (stereo partly drawn) [Example 263, 1-(5-(2-(2,6-dioxopiperidin-3-yl)-1-oxoisoindolin-4-yl)pentyl)-4-(4-(((S)-tetrahydrofuran-3-yl)oxy)phenyl)piperidine-4-carbonitrile] showed an IC50 of 100 to 1000 nM.
